The supplement of paper PMC8988213

What was measured:
[1] = tested on: ID211 patient-derived PDAC 2D line (post-FOLFIRINOX); assay: normalised area under dose-response curve (viability relative to DMSO, 7 doses up to 10 µM) (fraction (AUC)); higher = less sensitive (more viability retained); conditions: 72 h; top dose: 10 µM
Method: (§1)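 Patient-derived 2D PDAC cells (ID188 pre-FOLFIRINOX, passage 5+27; ID211 post-FOLFIRINOX, passage 9+11), 1,500-3,000 cells/well in 96-well plates, were treated with a 415-compound Selleck library in seven concentrations (3-fold dilution series, top 10 µM) for 72 h. Viability was read by CellTiter-Glo ATP luminescence, normalised to the DMSO control, and the area under the dose-response curve was computed with the GRmetrics R package; a lower AUC means higher sensitivity.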

[2] = tested on: ID188 patient-derived PDAC 2D line (pre-FOLFIRINOX); assay: as above; conditions: 72 h; top dose: 10 µM
Method: as §1

| Structure (SMILES) | normalised area under dose-response curve [1] | normalised area under dose-response curve [2] |
| --- | --- | --- |
| C=CC(=O)Nc1cccc(Oc2nc(Nc3ccc(N4CCN(C)CC4)cc3)nc3ccsc23)c1 | 0.75 | 0.921 |
| CC(=O)Nc1cccc(-n2c(=O)n(C3CC3)c(=O)c3c(Nc4ccc(I)cc4F)n(C)c(=O)c(C)c32)c1 | 0.197 | 0.553 |
| CC(=O)c1c(C)c2cnc(Nc3ccc(N4CCNCC4)cn3)nc2n(C2CCCC2)c1=O | 0.865 | 0.882 |
| CC(=O)c1cc([N+](=O)[O-])c(Sc2ccc(F)cc2F)s1 | 0.966 | 0.93 |
| CC(=O)c1cc([N+](=O)[O-])c(Sc2cccc(Cl)c2Cl)s1 | 0.848 | 0.98 |
| CC(C)(C)Cn1c(N)nc2ccc(-c3[nH]c(C(C)(C)C)nc3-c3ccc(F)cc3)nc21 | 0.862 | 0.992 |
| CC(C)Nc1cc(-c2c[nH]c(C(=O)N[C@H](CO)c3cccc(Cl)c3)c2)c(Cl)cn1 | 0.687 | 0.881 |
| CC(C)c1cc(C(=O)N2Cc3ccc(CN4CCN(C)CC4)cc3C2)c(O)cc1O | 0.458 | 0.665 |
| CCNC(=O)C#Cc1ccc2c(C(=Nc3ccc(CN(C)C)cc3)c3ccccc3)c(O)[nH]c2c1 | 0.264 | 0.621 |
| CCOc1ccn(-c2ccc(F)cc2)c(=O)c1C(=O)Nc1ccc(Oc2ccnc(N)c2Cl)c(F)c1 | 0.945 | 0.882 |
| CCc1cncnc1N1CCN(Cc2nc3ccc(C(F)(F)F)cc3[nH]2)CC1 | 0.936 | 0.92 |
| CCn1c(=O)c(-c2cc[nH]n2)cc2c(C)nc(N)nc21 | 0.792 | 0.814 |
| CN(C(=O)c1ccc(F)cc1C(F)(F)F)C1CCN(c2nnc(-c3ccnn3C)c3ccccc23)CC1 | 0.855 | 0.939 |
| CN(C)CC#Cc1ccc(OCCCc2sc(N3CCc4cccc(C(=O)Nc5nc6ccccc6s5)c4C3)nc2C(=O)O)c(F)c1 | 0.592 | 0.789 |
| CN(C)Cc1c(C(=O)NCCOc2ccc(C(=O)NO)cc2)oc2ccccc12 | 0.748 | 0.733 |
| CN(c1ncccc1CNc1nc(Nc2ccc3c(c2)CC(=O)N3)ncc1C(F)(F)F)S(C)(=O)=O | 0.795 | 0.89 |
| CN1CCN(C(=O)/C=C/c2ccc([N+](=O)[O-])o2)CC1 | 0.937 | 0.954 |
| CN1CCN(c2ccc(Nc3ncc4cc(C#N)c(=O)n(C5CCCC5)c4n3)cc2)CC1 | 0.852 | 0.98 |
| CNC(=O)c1ccc(-c2cnc3ncc(Cc4ccc5ncccc5c4)n3n2)cc1F | 0.855 | 0.956 |
| CNS(=O)(=O)Nc1nccc(Cc2c(C)c3ccc(Oc4ncccn4)cc3oc2=O)c1F | 0.409 | 0.679 |

| Structure (SMILES) | normalised area under dose-response curve [1] | normalised area under dose-response curve [2] |
| --- | --- | --- |
| COCCOc1ccc2c(c1)ncn2-c1ccc2cccc(N3CCC(N)CC3)c2n1 | 1.03 | 0.974 |
| COc1cc(OC)c(/C=C/S(=O)(=O)Cc2ccc(OC)c(NCC(=O)O)c2)c(OC)c1 | 0.557 | 0.746 |
| COc1cc2ncnc(Oc3cccc(NC(=O)Nc4cc(C(C)(C)C(F)(F)F)on4)c3)c2cc1OC | 0.832 | 0.948 |
| COc1ccccc1S(=O)(=O)Nc1ccc2c(c1)CN(C)C(=O)N2 | 0.753 | 0.921 |
| C[C@@H](C(=O)Nc1ccc(Cl)cc1)C1CCC(c2ccnc3ccc(F)cc23)CC1 (stereo partly specified) | 0.863 | 0.882 |
| C[C@@H](N)[C@H]1CC[C@H](C(=O)Nc2ccncc2)CC1 | 0.922 | 0.941 |
| C[C@@H]1CCN(C(=O)CC#N)C[C@@H]1N(C)c1ncnc2[nH]ccc12 | 0.881 | 0.759 |
| Cc1cc2c(F)c(Oc3ncnn4cc(OC[C@@H](C)O)c(C)c34)ccc2[nH]1 | 0.813 | 0.918 |
| Cc1ccc(C(=O)N(CCCN)[C@@H](c2oc3cc(Cl)ccc3c(=O)c2Cc2ccccc2)C(C)C)cc1 | 0.708 | 0.51 |
| Cc1ccc(C(=O)Nc2ccc(CN3CCN(C)CC3)c(C(F)(F)F)c2)cc1C#Cc1cnc2cccnn12 | 0.696 | 0.782 |
| Cc1ccc(S(=O)(=O)Cc2nc(-c3ccc(C(=O)NCc4cccnc4)cc3)oc2C)cc1 | 0.275 | 0.358 |
| Cc1ccc2nc(NCCN)c3ncc(C)n3c2c1 | 0.857 | 0.853 |
| Cc1cnc(NC(=O)Nc2cc(Br)c(C)cc2OC[C@@H]2CNCCO2)cn1 | 0.869 | 0.731 |
| Cc1nc(Nc2n[nH]c3c2CN(C(=O)N[C@H](CN(C)C)c2ccccc2)C3(C)C)c2sccc2n1 | 0.551 | 0.578 |
| Cc1nn(C)c(COc2ccc(N3CCN(S(=O)(=O)N(C)C)CC3)cc2)c1-c1cccc2c(CCCOc3cccc4ccccc34)c(C(=O)O)n(CCN3CCOCC3)c12 | 0.938 | 0.98 |
| Cn1cc(C2=C(c3ccc(Cl)cc3Cl)C(=O)NC2=O)c2ccccc21 | 0.787 | 0.813 |
| Cn1cnc2c(F)c(Nc3ccc(Br)cc3F)c(C(=O)NOCCO)cc21 | 0.457 | 0.732 |
| Cn1ncc(Cl)c1-c1cc(C(=O)N[C@H](CN)Cc2ccc(F)c(F)c2)oc1Cl | 0.789 | 0.805 |
| N#CC[C@H](C1CCCC1)n1cc(-c2ncnc3[nH]ccc23)cn1 | 0.892 | 0.945 |
| N#Cc1c(O)c2c(-c3ccc(-c4ccccc4O)cc3)csc2[nH]c1=O | 0.782 | 0.977 |

| Structure (SMILES) | normalised area under dose-response curve [1] | normalised area under dose-response curve [2] |
| --- | --- | --- |
| NC(=O)[C@@H](CCC(F)(F)F)N(Cc1ccc(-c2ncon2)cc1F)S(=O)(=O)c1ccc(Cl)cc1 | 0.77 | 0.882 |
| NC[C@@](O)(c1ccc(Cl)cc1)c1ccc(-c2cn[nH]c2)cc1 | 0.981 | 1.03 |
| Nc1nc2c(cnn2CCc2ccccc2)c2nc(-c3ccco3)nn12 | 0.905 | 0.94 |
| Nc1nccc(Oc2ccc(NC(=O)c3c[nH]cc(-c4ccc(F)cc4)c3=O)cc2F)c1Cl | 0.911 | 0.939 |
| Nc1ncnc2n[nH]c(Nc3ccc(F)cc3)c12 | 0.864 | 0.947 |
| O=C(NNc1ccccc1)c1ccncc1 | 0.899 | 0.961 |
| O=C(Oc1cc(S(=O)(=O)c2ccccc2)ccc1[N+](=O)[O-])c1ccc(Cl)cc1 | 0.869 | 0.959 |
| O=C(c1cc(Cc2n[nH]c(=O)c3ccccc23)ccc1F)N1CCN(C(=O)C2CC2)CC1 | 0.865 | 0.917 |
| O=C1NCCCc2c1oc1ccc(O)cc21 | 0.878 | 0.904 |
| O=S(=O)(N=Cc1c(O)ccc2ccccc12)c1cccs1 | 0.941 | 0.913 |
| O=S(=O)(O)c1ccc2cc(N=Nc3cc(S(=O)(=O)O)c4cccnc4c3O)ccc2c1 | 0.831 | 0.938 |
| O=c1[nH]c(C2CCCN2)nc2c1oc1ccc(Cl)cc12 (stereo unspecified) | 0.897 | 0.916 |
| O=c1cc(N2CCOCC2)oc2c(-c3cccc4c3sc3ccccc34)cccc12 | 0.878 | 0.991 |
| OCc1ccc(-c2ccc(-c3ccc(CO)s3)o2)s1 | 0.896 | 0.917 |
| Oc1c2ccccc2c2c3c(cccc13)N=N2 | 1.04 | 0.881 |
| Oc1ccc(-c2nc(-c3ccc(F)cc3)c(-c3ccncc3)[nH]2)cc1 | 1 | 0.95 |
| O=C(O)C(Cc1ccccc1[N+](=O)[O-])=NNc1nc(-c2ccc(Cl)c(Cl)c2)cs1 (mixture of isomers) [4EGI-1] | 0.889 | 0.549 |
| Cc1nnc(C(C)C)n1C1C[C@H]2CC[C@@H](C1)N2CC[C@H](NC(=O)C1CCC(F)(F)CC1)c1ccccc1 (stereo in doubt) [Maraviroc] | 0.865 | 1 |
